Our source for the IC50 values is patent US9115093B2, “Substituted bicyclic dihydropyrimidinones and their use as inhibitors of neutrophil elastase activity” (Boehringer Ingelheim International GmbH, priority 2013, dated 2015).

The assay deals with T1, neutrophil elastase (Homo sapiens, UniProt P08246).
T1 sequence (P08246 30-247 limits assumed): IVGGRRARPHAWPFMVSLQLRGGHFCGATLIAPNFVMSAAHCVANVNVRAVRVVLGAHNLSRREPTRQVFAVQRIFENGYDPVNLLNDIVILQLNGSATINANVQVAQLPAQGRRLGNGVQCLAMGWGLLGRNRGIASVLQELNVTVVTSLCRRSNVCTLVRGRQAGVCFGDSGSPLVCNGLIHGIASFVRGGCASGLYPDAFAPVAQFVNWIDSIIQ
Description: Human Neutrophil Elastase Assay. Format: biochemical. Also noted: purchased Calbiochem 324681. The note with it: substrate MeOSuc-Ala-Ala-Pro-Val-AMC, pH 7.5, room temperature. The procedure:
Human Neutrophil Elastase Assay
Materials: Human neutrophil elastase was purchased from Calbiochem (Cat.No.: 324681) and the elastase substrate MeOSuc-Ala-Ala-Pro-Val-AMC from Bachem (Cat.No.: I-1270). All other materials were of the highest grade commercially available.
The following buffers were used: Compound buffer: 100 mM Tris, 500 mM NaCl, adjusted to pH 7.5; Assay buffer: 100 mM Tris, 500 mM NaCl, adjusted to pH 7.5, containing 0.01% BSA.
Assay conditions: Test compounds were prediluted in DMSO and subsequently in compound buffer (5% DMSO final). 5 μL of these compound dilutions were mixed with 10 μl Neutrophil elastase (9 ng/ml in assay buffer) in a black 384 well OptiPlate (Perkin Elmer, Cat No.: 6007270) and incubated for 15 min at room temperature. Subsequently 10 μL substrate solution in assay buffer were added (250 nM final concentration) and the plates were incubated for 60 min at room temperature. After inactivation of the enzyme, fluorescence intensities were measured at 380 nm excitation and 460 nm emission wavelengths.
Each plate contains wells with a high value control (DMSO+enzyme+substrate) and wells with a low value control (DMSO+inactivated enzyme+substrate). IC50 values were estimated using a sigmoidal concentration response curve with variable slope. Means of low values were taken as 0%, means of high values as 100%.
In the case of `CC1(C)CCC2=C(C1=O)C(c1ccc(C#N)cc1)NC(=O)N2c1cccc(C(F)(F)F)c1` (centres unmarked) [Example 2, 4-(6,6-Dimethyl-2,5-dioxo-1-(3-(trifluoromethyl)phenyl)-1,2,3,4,5,6,7,8-octahydroquinazolin-4-yl)benzonitrile], inhibition was half-maximal at 44.9 nM (IC50). Regarding `CC1(C)CC(=O)C2=C(C1)N(c1cccc(C(F)(F)F)c1)C(=O)NC2c1ccc(C#N)cc1` (centres unmarked) [Example 3, 4-(7,7-Dimethyl-2,5-dioxo-1-(3-(trifluoromethyl)phenyl)-1,2,3,4,5,6,7,8-octahydroquinazolin-4-yl)benzonitrile], inhibition was half-maximal at 68.3 nM (IC50). Against the preceding compound, the IC50 is about 1.5-fold higher. In the case of `N#Cc1ccc(C2NC(=O)N(c3cccc(C(F)(F)F)c3)C3=C2C(=O)CC2(CCOCC2)C3)cc1` (centres unmarked) [Example 4, 4-(2′,5′-Dioxo-1′-(3-(trifluoromethyl)phenyl)-2,2′,3,3′,4′,5,5′,6,6′,8′-decahydro-1′H-spiro[pyran-4,7′-quinazoline]-4′-yl)benzonitrile], the IC50 – broadly, the concentration that inhibits the measured activity by half – was determined as 110 nM. For `N#Cc1ccc(C2NC(=O)N(c3cccc(C(F)(F)F)c3)C3=C2C(=O)CC(C(F)(F)F)C3)cc1` (centres unmarked) [Example 5, 4-(2,5-Dioxo-7-(trifluoromethyl)-1-(3-(trifluoromethyl)phenyl)-1,2,3,4,5,6,7,8-octahydroquinazolin-4-yl)benzonitrile] the value was 65.8 nM; for `N#Cc1ccc(C2NC(=O)N(c3cccc(C(F)(F)F)c3)C3=C2C(=O)CC(c2ccccc2)C3)cc1` (centres unmarked) [Example 6, 4-(2,5-dioxo-7-phenyl-1-(3-(trifluoromethyl)phenyl)-1,2,3,4,5,6,7,8-octahydroquinazolin-4-yl)benzonitrile], 47.6 nM; for `N#Cc1ccc(C2NC(=O)N(c3cccc(C(F)(F)F)c3)C3=C2C(=O)CC(c2ccc(C(F)(F)F)cc2)C3)cc1` (centres unmarked) [Example 7, 4-(2,5-Dioxo-1-(3-(trifluoromethyl)phenyl)-7-(4-(trifluoromethyl)phenyl)-1,2,3,4,5,6,7,8-octahydroquinazolin-4-yl)benzonitrile], 212 nM. Turning to `COc1cc(C2CC(=O)C3=C(C2)N(c2cccc(C(F)(F)F)c2)C(=O)NC3c2ccc(C#N)cc2)cc(OC)c1OC` (centres unmarked) [Example 8, 4-(2,5-Dioxo-1-(3-(trifluoromethyl)phenyl)-7-(3,4,5-trimethoxyphenyl)-1,2,3,4,5,6,7,8-octahydroquinazolin-4-yl)benzonitrile], half-maximal inhibition (IC50) required 26.3 nM.

The compound `N#Cc1ccc(C2NC(=O)N(c3cccc(C(F)(F)F)c3)C3=C2C(=O)CC(c2cccs2)C3)cc1` (centres unmarked) [Example 9, 4-(2,5-Dioxo-7-(thiophen-2-yl)-1-(3-(trifluoromethyl)phenyl)-1,2,3,4,5,6,7,8-octahydroquinazolin-4-yl)benzonitrile] came in with a half-maximal inhibitory concentration (IC50) of 41.7 nM. For `N#Cc1ccc(C2NC(=O)N(c3cccc(C(F)(F)F)c3)C3=C2C(=O)CC(C(=O)O)C3)cc1` (centres unmarked) [Example 10, 4-(4-Cyanophenyl)-2,5-dioxo-1-(3-(trifluoromethyl)phenyl)-1,2,3,4,5,6,7,8-octahydroquinazoline-7-carboxylic acid], 48.5 nM corresponded to half-maximal inhibition (IC50). With `COC(=O)C1CC(=O)C2=C(C1)N(c1cccc(C(F)(F)F)c1)C(=O)NC2c1ccc(C#N)cc1` (centres unmarked) [Example 11, Methyl 4-(4-Cyanophenyl)-2,5-dioxo-1-(3-(trifluoromethyl)phenyl)-1,2,3,4,5,6,7,8-octahydroquinazoline-7-carboxylate] the figure was 39.4 nM; with `N#Cc1ccc(C2NC(=O)N(c3cccc(C(F)(F)F)c3)C3=C2C(=O)CC(C(N)=O)C3)cc1` (centres unmarked) [Example 12, 4-(4-Cyanophenyl)-2,5-dioxo-1-(3-(trifluoromethyl)phenyl)-1,2,3,4,5,6,7,8-octahydroquinazoline-7-carboxamide], 43.4 nM. For `N#Cc1ccc(C2NC(=O)N(c3cc(C(F)(F)F)ccn3)C3=C2C(=O)CCC3)cc1` (centres unmarked) [Example 13, 4-(2,5-Dioxo-1-(4-(trifluoromethyl)pyridin-2-yl)-1,2,3,4,5,6,7,8-octahydroquinazolin-4-yl)benzonitrile] the value was 110 nM. With `N#Cc1ccc(C2NC(=O)N(c3ccnc(C(F)(F)F)c3)C3=C2C(=O)CCC3)cc1` (centres unmarked) [Example 14, 4-(2,5-Dioxo-1-(2-(trifluoromethyl)pyridin-4-yl)-1,2,3,4,5,6,7,8-octahydroquinazolin-4-yl)benzonitrile] the figure was 70.3 nM; with `N#Cc1ccc(C2NC(=O)N(c3cccc(C(F)(F)F)c3)C3=C2C(=O)CCC3)nc1` (centres unmarked) [Example 15, 6-(2,5-Dioxo-1-(3-(trifluoromethyl)phenyl)-1,2,3,4,5,6,7,8-octahydroquinazolin-4-yl)-nicotinonitrile], 52.1 nM. For `N#Cc1ccc(C2NC(=O)N(c3cccc(C(F)(F)F)c3)C3=C2C(=O)CCC3)cn1` (centres unmarked) [Example 16, 5-(2,5-dioxo-1-(3-(trifluoromethyl)phenyl)-1,2,3,4,5,6,7,8-octahydroquinazolin-4-yl)-picolinonitrile], half-maximal inhibition (IC50) was put at 54.1 nM. The IC50 values of the last two compounds are within 1.5-fold of each other. `N#Cc1ccc(C2NC(=O)N(c3cccc(C(F)F)c3)C3=C2C(=O)CCC3)cc1` (centres unmarked) [Example 17, 4-(1-(3-(Difluoromethyl)phenyl)-2,5-dioxo-1,2,3,4,5,6,7,8-octahydroquinazolin-4-yl)-benzonitrile] showed an IC50 of 23.2 nM. In the case of `CCCCN1C(=O)N(c2cccc(C(F)(F)F)c2)C2=C(C(=O)CCC2)C1c1ccc(C#N)cc1` (centres unmarked) [Example 21, 4-(3-Butyl-1-(3-(trifluoromethyl)phenyl)-2,5-dioxo-1,2,3,4,5,6,7,8-octahydroquinazolin-4-yl)benzonitrile], the IC50 was 19.4 nM. Regarding `COCCN1C(=O)N(c2cccc(C(F)(F)F)c2)C2=C(C(=O)CCC2)C1c1ccc(C#N)cc1` (centres unmarked) [Example 22, 4-(1-(3-(Trifluoromethyl)phenyl)-3-(2-methoxyethyl)-2,5-dioxo-1,2,3,4,5,6,7,8-octahydroquinazolin-4-yl)benzonitrile], inhibition was half-maximal at 8.7 nM (IC50).

Compound `N#Cc1ccc(C2C3=C(CCCC3=O)N(c3cccc(C(F)(F)F)c3)C(=O)N2CCCN2CCCC2)cc1` (centres unmarked) [Example 23, 4-(1-(3-(Trifluoromethyl)phenyl)-2,5-dioxo-3-(3-(pyrrolidin-1-yl)propyl)-1,2,3,4,5,6,7,8-octahydroquinazolin-4-yl)benzonitrile] gave a concentration for half-maximal inhibition (IC50) of 10.7 nM. Consider `COCCCN1C(=O)N(c2cccc(C(F)(F)F)c2)C2=C(C(=O)CCC2)C1c1ccc(C#N)cc1` (centres unmarked) [Example 24, 4-(1-(3-(Trifluoromethyl)phenyl)-3-(3-methoxypropyl)-2,5-dioxo-1,2,3,4,5,6,7,8-octahydroquinazolin-4-yl)benzonitrile], for which the IC50 was found to be 6.4 nM. Consider `Cn1nccc1CN1C(=O)N(c2cccc(C(F)(F)F)c2)C2=C(C(=O)CCC2)C1c1ccc(C#N)cc1` (centres unmarked) [Example 24.1], for which half-maximal inhibition (IC50) was put at 6.6 nM. With `Cn1cc(CN2C(=O)N(c3cccc(C(F)(F)F)c3)C3=C(C(=O)CCC3)C2c2ccc(C#N)cc2)cn1` (centres unmarked) [Example 24.2] the figure was 9.8 nM; with `Cn1ccc(CN2C(=O)N(c3cccc(C(F)(F)F)c3)C3=C(C(=O)CCC3)C2c2ccc(C#N)cc2)n1` (centres unmarked) [Example 24.3], 11.1 nM; with `N#Cc1ccc(C2C3=C(CCCC3=O)N(c3cccc(C(F)(F)F)c3)C(=O)N2CC2CCOC2)cc1` (centres unmarked) [Example 25, 4-(1-(3-(Trifluoromethyl)phenyl)-2,5-dioxo-3-((tetrahydrofuran-3-yl)methyl)-1,2,3,4,5,6,7,8-octahydroquinazolin-4-yl)benzonitrile], 8.6 nM. On to `N#Cc1ccc(C2C3=C(CCCC3=O)N(c3cccc(C(F)(F)F)c3)C(=O)N2CC2CCOCC2)cc1` (centres unmarked) [Example 26], for which the IC50 was 11.8 nM.

On to `Cn1ccc(CN2C(=O)N(c3cccc(C(F)(F)F)c3)C3=C(C(=O)CCC3)C2c2ccc(C#N)cc2)cc1=O` (centres unmarked) [Example 27, 4-(1-(3-(Trifluoromethyl)phenyl)-3-((1-methyl-2-oxo-1,2-dihydropyridin-4-yl)methyl)-2,5-dioxo-1,2,3,4,5,6,7,8-octahydroquinazolin-4-yl)benzonitrile], for which the IC50 was 10.8 nM. This IC50 and that of the compound before are within 1.5-fold of each other. `COC(=O)c1ccc(CN2C(=O)N(c3cccc(C(F)(F)F)c3)C3=C(C(=O)CCC3)C2c2ccc(C#N)cc2)o1` (centres unmarked) [Example 28, Methyl 5-((4-(4-Cyanophenyl)-2,5-dioxo-1-(3-(trifluoromethyl)phenyl)-1,2,5,6,7,8-hexahydroquinazolin-3(4H)-yl)methyl)furan-2-carboxylate] registered a 50% inhibitory concentration (IC50) of 29 nM. With `N#Cc1ccc(C2C3=C(CCCC3=O)N(c3cccc(C(F)(F)F)c3)C(=O)N2Cc2ccc(C(=O)O)o2)cc1` (centres unmarked) [Example 29, 5-((4-(4-Cyanophenyl)-2,5-dioxo-1-(3-(trifluoromethyl)phenyl)-1,2,5,6,7,8-hexahydroquinazolin-3(4H)-yl)methyl)furan-2-carboxylic acid] the figure was 13.7 nM. For `CS(=O)(=O)CCN1C(=O)N(c2cccc(C(F)(F)F)c2)C2=C(C(=O)CCC2)C1c1ccc(C#N)cc1` (centres unmarked) [Example 30, 4-(3-(2-(Methylsulfonyl)ethyl)-2,5-dioxo-1-(3-(trifluoromethyl)phenyl)-1,2,3,4,5,6,7,8-octahydroquinazolin-4-yl)benzonitrile] the value was 4 nM.
